Test results published in patent publication EP4740962A1, “PHARMACEUTICAL COMPOSITION, FORMULATION CONTAINING PHARMACEUTICAL COMPOSITION, KIT CONTAINING PHARMACEUTICAL COMPOSITION, PREPARATION METHOD FOR PHARMACEUTICAL COMPOSITION, AND USE OF PHARMACEUTICAL COMPOSITION” (Shanghai WD Pharmaceutical Co., Ltd, priority 2023, dated 2025).

Tests used:
[1] = Compatibility study of carbidopa-levodopa granule raw materials and excipients at 40°C/75% RH; format: physicochemical
Source text: (§1) After preparation into the formulation, there was a risk of exceeding the limit for related substances in terms of stability.

[2] = Compatibility study of voriconazole granule raw material and excipients at 40°C/75% RH; format: physicochemical
Source text: as §1

Row | Appearance [1] | Total impurities (%) ([1]; 0 Days) | Total impurities (%) ([1]; 14 Days) | Total impurities (%) ([1]; 28 Days) | Appearance [2] | Total impurities (%) ([2]; 0 Days) | Total impurities (%) ([2]; 14 Days) | Total impurities (%) ([2]; 28 Days) | Structure (SMILES)
1 | No change | Not detected | 0.03 | 0.07 |  |  |  |  | N[C@@H](Cc1ccc(O)c(O)c1)C(=O)O [Levodopa]
2 |  |  |  |  | No change | 0.01 | 0.01 | 0.01 | C[C@@H](c1ncncc1F)[C@](O)(Cn1cncn1)c1ccc(F)cc1F [Voriconazole]
3 | No change | 0.10% | 0.08 | 0.07 |  |  |  |  | C[C@@](Cc1ccc(O)c(O)c1)(NN)C(=O)O [Carbidopa]
